Test results as given in patent US20200246322A1, “METHOD FOR TREATING GLUTEN-RELATED ALLERGIES AND I[…] WITH LOPERAMIDE” (priority 2019, published 2020).

Tested on: gluten intolerance
Assay: treating/preventing gluten intolerance with oral loperamide (experience of the inventor)
Assay type: in vivo, patient
Settings: dosage titrated, as long as it is the type of gluten intolerance that responds to loperamide and the proper daily dosage is adhered to
From the text: The present invention may include a new use of the existing OTC medication (generic: loperamide, brand: Immodium™) to be taken orally by patient suffering from gluten allergy/intolerance symptoms. The Loperamide is taken until the gluten allergy/intolerance symptoms are relieved.
The amount of loperamide needed to treat/prevent the symptoms of gluten intolerance can be quite a bit higher than the levels that can cause constipation. In that case, a slow increase in dosage may be necessary in order to create a resistance to the constipatory effects. Titration may be necessary to reach the proper dosage to eliminate the symptoms, starting preferably with the standard lowest dosage of loperamide recommended to treat diarrhea (2 mg tablet after the first loose stool, 1 tablet after each subsequent loose stool) and adding 1×2 mg tablet every 6 hours until stool consistency normalizes, at which point the symptoms of gluten intolerance will disappear completely, if it is the type of gluten intolerance that is treatable with loperamide. In the experience of the inventor, the rate of successfully treating/preventing gluten intolerance completely is 100%, as long as it is the type of gluten intolerance that responds to loperamide, and the proper daily dosage is adhered to once it is determined to be effective for the patient.

## CN(C)C(=O)C(CCN1CCC(O)(c2ccc(Cl)cc2)CC1)(c1ccccc1)c1ccccc1 [loperamide]
  rate of successfully treating/preventing gluten intolerance completely: 100%
